From ChEMBL document CHEMBL1201862, “PubChem BioAssay data set” (2004)
Activity calls are given as the source filed them.

Tests used:
Estrogen receptor = target: T1, Estrogen receptor (Homo sapiens, UniProt P03372);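 note: potency for inhibiting coactivator peptide recruitment to the receptor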
T1 sequence (P03372 whole entry): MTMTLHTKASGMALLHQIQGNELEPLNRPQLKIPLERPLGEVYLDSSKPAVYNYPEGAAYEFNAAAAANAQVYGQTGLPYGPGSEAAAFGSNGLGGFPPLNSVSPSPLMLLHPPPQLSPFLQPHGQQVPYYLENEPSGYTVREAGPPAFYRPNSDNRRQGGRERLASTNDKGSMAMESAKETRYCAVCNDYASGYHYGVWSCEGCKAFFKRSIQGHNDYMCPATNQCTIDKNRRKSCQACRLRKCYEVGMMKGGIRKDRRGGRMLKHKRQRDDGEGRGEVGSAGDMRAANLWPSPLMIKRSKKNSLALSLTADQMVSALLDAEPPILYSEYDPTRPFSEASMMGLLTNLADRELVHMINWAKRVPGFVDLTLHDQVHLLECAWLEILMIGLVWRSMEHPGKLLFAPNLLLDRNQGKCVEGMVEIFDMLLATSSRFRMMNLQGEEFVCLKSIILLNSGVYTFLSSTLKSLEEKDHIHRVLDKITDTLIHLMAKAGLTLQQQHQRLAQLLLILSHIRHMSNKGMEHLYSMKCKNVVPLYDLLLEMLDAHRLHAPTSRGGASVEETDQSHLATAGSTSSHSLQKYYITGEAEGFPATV

Estrogen receptor beta [1] = target: T2, Estrogen receptor beta (Homo sapiens, UniProt Q92731);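 note: recombinant ER-beta bound to coactivator SRC1 peptide in presence of estradiol agonist; inhibitors block coactivator peptide binding and lower the FRET signal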
T2 sequence (Q92731 whole entry): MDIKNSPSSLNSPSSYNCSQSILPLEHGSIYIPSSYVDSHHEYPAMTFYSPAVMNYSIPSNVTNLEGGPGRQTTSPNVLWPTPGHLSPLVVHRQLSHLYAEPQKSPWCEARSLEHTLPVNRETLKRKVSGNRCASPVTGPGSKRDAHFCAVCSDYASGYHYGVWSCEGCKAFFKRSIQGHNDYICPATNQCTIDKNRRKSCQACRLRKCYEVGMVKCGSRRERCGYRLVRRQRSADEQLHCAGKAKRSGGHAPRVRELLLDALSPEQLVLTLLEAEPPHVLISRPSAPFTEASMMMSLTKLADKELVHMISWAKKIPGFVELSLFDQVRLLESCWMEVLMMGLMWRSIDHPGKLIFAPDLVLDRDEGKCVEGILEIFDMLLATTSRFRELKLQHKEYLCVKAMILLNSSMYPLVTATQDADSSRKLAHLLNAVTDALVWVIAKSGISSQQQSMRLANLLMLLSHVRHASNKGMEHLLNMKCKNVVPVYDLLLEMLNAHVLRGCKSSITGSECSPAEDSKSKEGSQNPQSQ

[2] = cytotoxicity in HPDE-C7 cells, cell-based, fluorescence, HTS (AID 430); assay type: functional; details: Homo sapiens
Protein Tat = target: T3, Protein Tat (Human immunodeficiency virus type 1 group M subtype B (isolate HXB2)(HIV-1), UniProt P04608); assay type: functional;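 note: tat binding to TAR RNA read out by fluorescence polarization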
T3 sequence (P04608 whole entry): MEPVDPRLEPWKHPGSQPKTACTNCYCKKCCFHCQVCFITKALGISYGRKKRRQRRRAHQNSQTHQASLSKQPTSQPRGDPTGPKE

[3] = target: DNA dC->dU-editing enzyme APOBEC-3A (Homo sapiens, UniProt P31941); assay: Dose Response confirmation of small molecule APOBEC3A DNA Deaminase Inhibitors via a fluorescence-based single-stranded DNA deaminase assay. [Related pubchem assays (depositor defined):AID493011, AID493024]; assay type: functional
Sequence of DNA dC->dU-editing enzyme APOBEC-3A (P31941 whole entry): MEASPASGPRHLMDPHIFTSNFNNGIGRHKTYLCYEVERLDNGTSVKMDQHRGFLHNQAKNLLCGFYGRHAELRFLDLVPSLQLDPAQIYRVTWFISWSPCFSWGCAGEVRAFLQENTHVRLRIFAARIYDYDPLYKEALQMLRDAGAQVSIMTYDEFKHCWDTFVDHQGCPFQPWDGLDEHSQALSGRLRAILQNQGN

Bcl-2-like protein 10 = target: T4, Bcl-2-like protein 10 (Homo sapiens, UniProt Q9HD36); assay: displacers of TR3 peptide from Bcl-B, primary screen, selectivity assay for Bfl-1 inhibitor project, biochemical, fluorescence polarization, FITC-TR3 peptide (AID 748);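 note: fluorescence polarization from a fluorescein-labelled TR3 peptide binding purified Bcl-B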
T4 sequence (Q9HD36 whole entry): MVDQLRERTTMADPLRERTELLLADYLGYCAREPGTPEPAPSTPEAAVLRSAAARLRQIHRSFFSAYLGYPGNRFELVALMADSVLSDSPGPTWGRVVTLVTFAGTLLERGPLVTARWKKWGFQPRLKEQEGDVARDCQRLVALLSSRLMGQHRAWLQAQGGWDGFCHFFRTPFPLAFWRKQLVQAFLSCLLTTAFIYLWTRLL

[4] = target: DNA dC->dU-editing enzyme APOBEC-3G (Homo sapiens, UniProt Q9HC16); assay type: functional;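 note: Dose-response counterscreen measuring inhibition of APOBEC3G DNA deaminase activity, run while confirming APOBEC3A inhibitors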
Sequence of DNA dC->dU-editing enzyme APOBEC-3G (Q9HC16 whole entry): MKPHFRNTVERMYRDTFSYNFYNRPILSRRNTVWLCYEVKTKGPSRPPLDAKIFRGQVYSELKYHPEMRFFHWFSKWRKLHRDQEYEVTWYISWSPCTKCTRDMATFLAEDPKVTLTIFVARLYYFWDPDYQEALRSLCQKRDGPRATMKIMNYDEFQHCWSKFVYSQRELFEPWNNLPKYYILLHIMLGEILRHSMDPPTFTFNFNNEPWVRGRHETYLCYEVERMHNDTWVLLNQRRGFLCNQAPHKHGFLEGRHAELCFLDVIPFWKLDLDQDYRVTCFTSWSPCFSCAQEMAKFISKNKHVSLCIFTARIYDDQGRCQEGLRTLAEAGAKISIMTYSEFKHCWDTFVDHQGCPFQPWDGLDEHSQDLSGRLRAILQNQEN

Estrogen receptor beta [5] = target: T2, Estrogen receptor beta; assay: ERβ–SRC-3 coactivator interaction inhibitors, confirmation, orthogonal assay, biochemical, ELISA, streptavidin-HRP readout (AID 1060)
[6] = cytotoxicity in KRAS-transformed pancreatic duct cells, primary screen, cell-based, fluorescence, HTS (AID 431); assay type: functional; details: Homo sapiens;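 note: cell line used: HPDE-C7K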
Coagulation factor XII = Coagulation factor XII (Homo sapiens, UniProt P00748); assay type: functional;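 note: activated factor XIIa alpha cleaving a fluorogenic AMC peptide substrate; inhibitor potency from loss of enzyme activity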
Sequence of Coagulation factor XII (P00748 20-372 limits assumed): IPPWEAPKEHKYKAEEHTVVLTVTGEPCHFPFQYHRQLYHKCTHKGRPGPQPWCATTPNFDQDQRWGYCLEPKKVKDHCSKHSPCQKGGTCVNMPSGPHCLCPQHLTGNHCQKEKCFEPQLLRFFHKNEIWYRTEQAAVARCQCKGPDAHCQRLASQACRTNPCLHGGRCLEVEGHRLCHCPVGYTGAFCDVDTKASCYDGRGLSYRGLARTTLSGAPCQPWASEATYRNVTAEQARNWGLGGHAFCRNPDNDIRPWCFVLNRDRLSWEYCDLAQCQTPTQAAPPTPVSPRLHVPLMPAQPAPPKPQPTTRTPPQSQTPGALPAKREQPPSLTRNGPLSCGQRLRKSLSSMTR
Sequence of Coagulation factor XII (P00748 373-615 limits assumed): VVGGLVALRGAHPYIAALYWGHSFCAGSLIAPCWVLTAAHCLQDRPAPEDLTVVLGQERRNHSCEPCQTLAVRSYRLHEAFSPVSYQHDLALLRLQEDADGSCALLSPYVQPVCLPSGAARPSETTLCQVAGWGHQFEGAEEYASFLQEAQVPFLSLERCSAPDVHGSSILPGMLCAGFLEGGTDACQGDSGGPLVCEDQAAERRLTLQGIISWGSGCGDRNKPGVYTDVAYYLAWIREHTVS

[7] = target: T5, Alkaline phosphatase, tissue-nonspecific isozyme (Homo sapiens, UniProt P05186); assay: human TNAP enzyme inhibitors, SAR follow-up, biochemical, luminescent, dose response (AID 1056)
T5 sequence (P05186 whole entry): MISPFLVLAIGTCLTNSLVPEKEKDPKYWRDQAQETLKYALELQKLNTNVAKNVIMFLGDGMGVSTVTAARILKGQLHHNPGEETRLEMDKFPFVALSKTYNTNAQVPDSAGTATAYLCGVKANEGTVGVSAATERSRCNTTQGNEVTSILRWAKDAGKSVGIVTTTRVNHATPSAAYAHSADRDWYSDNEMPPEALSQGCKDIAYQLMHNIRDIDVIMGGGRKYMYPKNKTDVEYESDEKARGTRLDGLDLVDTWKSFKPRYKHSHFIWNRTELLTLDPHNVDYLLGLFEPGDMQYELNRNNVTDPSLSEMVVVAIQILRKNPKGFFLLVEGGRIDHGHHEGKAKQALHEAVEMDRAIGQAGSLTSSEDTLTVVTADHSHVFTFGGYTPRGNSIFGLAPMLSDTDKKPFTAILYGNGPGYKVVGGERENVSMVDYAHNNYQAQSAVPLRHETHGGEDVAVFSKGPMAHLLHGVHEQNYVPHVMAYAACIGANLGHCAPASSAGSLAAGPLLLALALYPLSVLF

[8] = target: Glyceraldehyde-3-phosphate dehydrogenase (Homo sapiens, UniProt P04406)
Sequence of Glyceraldehyde-3-phosphate dehydrogenase (P04406 whole entry): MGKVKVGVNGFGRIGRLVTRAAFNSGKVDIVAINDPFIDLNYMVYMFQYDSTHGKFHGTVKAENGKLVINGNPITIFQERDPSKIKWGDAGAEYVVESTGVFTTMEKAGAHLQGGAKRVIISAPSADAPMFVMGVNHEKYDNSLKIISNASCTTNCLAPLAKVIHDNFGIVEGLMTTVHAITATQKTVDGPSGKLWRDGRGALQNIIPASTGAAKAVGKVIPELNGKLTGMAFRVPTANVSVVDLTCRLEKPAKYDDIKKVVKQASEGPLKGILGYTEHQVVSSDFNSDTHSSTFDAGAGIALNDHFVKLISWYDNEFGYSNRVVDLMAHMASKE

[9] = target: Alkaline phosphatase, placental type (Homo sapiens, UniProt P05187); assay: PLAP enzyme inhibitors, confirmation, biochemical, luminescence (AID 1512); assay type: functional
Sequence of Alkaline phosphatase, placental type (P05187 whole entry): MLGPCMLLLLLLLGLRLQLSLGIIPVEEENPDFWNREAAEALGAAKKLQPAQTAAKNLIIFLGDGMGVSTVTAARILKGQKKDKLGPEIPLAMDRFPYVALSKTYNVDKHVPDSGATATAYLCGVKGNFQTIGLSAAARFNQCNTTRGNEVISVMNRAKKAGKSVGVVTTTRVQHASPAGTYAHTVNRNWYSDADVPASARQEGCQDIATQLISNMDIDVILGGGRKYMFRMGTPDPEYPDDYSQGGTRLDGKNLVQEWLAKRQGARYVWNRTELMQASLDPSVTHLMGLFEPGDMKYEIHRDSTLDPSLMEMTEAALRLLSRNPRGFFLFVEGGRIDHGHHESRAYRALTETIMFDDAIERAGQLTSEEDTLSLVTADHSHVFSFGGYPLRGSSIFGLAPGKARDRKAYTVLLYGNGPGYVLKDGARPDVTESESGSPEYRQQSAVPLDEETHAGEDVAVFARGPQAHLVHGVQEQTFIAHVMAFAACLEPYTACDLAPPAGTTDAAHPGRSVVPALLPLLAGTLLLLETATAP

[10] = target: Eukaryotic translation initiation factor 4H (Homo sapiens, UniProt Q15056); assay: human eIF4H binding inhibitors, primary screen, translation initiation inhibitor project, biochemical, uHTS, fluorescence polarization (AID 2012)
[11] = target: Polyadenylate-binding protein 1 (Homo sapiens, UniProt P11940); assay: PABP poly(A) RNA binding inhibitors, primary screen, biochemical, fluorescence polarization, uHTS (AID 2014)
Sequence of Polyadenylate-binding protein 1 (P11940 whole entry): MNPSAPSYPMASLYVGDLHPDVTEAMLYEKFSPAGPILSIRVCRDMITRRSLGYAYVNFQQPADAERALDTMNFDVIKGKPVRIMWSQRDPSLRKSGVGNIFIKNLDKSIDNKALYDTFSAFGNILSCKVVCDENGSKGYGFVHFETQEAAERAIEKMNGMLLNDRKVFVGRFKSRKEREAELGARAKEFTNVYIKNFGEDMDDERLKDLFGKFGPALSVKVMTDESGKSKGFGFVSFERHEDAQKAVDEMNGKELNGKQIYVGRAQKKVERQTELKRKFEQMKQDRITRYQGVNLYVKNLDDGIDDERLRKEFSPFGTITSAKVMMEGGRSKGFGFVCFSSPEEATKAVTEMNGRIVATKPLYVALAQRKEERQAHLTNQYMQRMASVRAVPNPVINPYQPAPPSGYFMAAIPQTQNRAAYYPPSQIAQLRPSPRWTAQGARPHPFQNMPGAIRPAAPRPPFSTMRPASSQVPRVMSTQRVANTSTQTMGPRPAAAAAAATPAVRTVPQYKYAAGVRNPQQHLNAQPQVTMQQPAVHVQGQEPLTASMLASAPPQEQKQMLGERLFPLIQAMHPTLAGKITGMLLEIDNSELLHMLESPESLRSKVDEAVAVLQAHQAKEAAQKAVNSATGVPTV

COc1ccc2c(c1)c(=O)oc1cc(OCC(=O)N3CCC(C)CC3)ccc12
IC50 (Estrogen receptor): 11.7 µM (active) | IC50 (Estrogen receptor beta [1]): 5.31 µM (active) | EC50 [2]: > 20 µM (not active) | IC50 (Protein Tat): > 100 µM (active) | IC50 [3]: 21.6 µM (active) | IC50 (Bcl-2-like protein 10): 31.8 µM (active) | IC50 [4]: > 100 µM (inactive) | IC50 (Estrogen receptor beta [5]): 14.3 µM (not active) | EC50 [6]: > 20 µM (not active)

COc1cccc(NC(C(=O)Nc2cccc(C(C)=O)c2)c2ccccc2)c1 (configuration not stated)
IC50 (Coagulation factor XII): > 50 µM (inactive)

Cc1n[nH]c2c1C(=O)CC(c1ccc(F)cc1)C2 (configuration not stated)
IC50 [7]: 14.4 µM (active) | IC50 [8]: > 100 µM (not active) | IC50 [9]: > 100 µM (inactive)

CCCn1c2c(c(=N)c3c1CCC3)CCC2
IC50 [3]: 2.76 µM (active) | IC50 [10]: > 100 µM (inactive) | IC50 [4]: 2.66 µM (active) | IC50 [11]: 4.08 µM (active)
